Assays:
[1] = Precipitation of the radical on aqueous dissolution and removal by mechanical filtration (UV-Vis check of filtrate); assay type: physicochemical
Method: The sample was dissolved in 6 ml 40 mM phosphate buffer pH 7.3+100 mg/l EDTA. A time series of 1D 13C-NMR spectra were recorded with a total delay between the pulses of 3 s. The liquid state polarization was 14% after 12 s transfer time. The pH was 7.3 in the dissolved sample.
The sample was dissolved in 6 ml 40 mM phosphate buffer pH 7.3+100 mg/l EDTA. A time series of 1D 13C-NMR spectra were recorded with a total delay between the pulses of 3 s. The liquid state polarization was 15% after 12 s transfer time. The pH was 7.3 in the dissolved sample. The sample was filtered through a syringe filter (Acrodisk 25 mm PVDF filter, 0.45 μm pore size). Filtration of the full volume was completed in <3 s. […] Since the high extinction coefficients of the trityl radicals allow reliable determination of concentration down to approximately 1-1.5 μM, the concentration in the filtrate was below these values. The radical was removed to >99%.

[2] = DNP polarization build-up and dissolution of ethylacetoacetate with the radical as polarizing agent; details: 18 mM radical in 15-Crown-5 / 1,3-13C2 ethylacetoacetate; DNP at 1.2 K, 3.35 T, microwave irradiation
Method: Radical 1 (1.50 mg, 1.4 μmol) was dissolved in 15-Crown-5 (60.5 μl, 67.2 mg) to make a 24 mM solution. To 30 μl (33.7 mg) of this solution was added 1,3-^13C2 ethylacetoacetate (10.5 mg, 79 μmol, 158 μmol ^13C). The radical 1 concentration in the mixture was 18 mM.
43 mg of the composition prepared above were transferred from the Eppendorf tube to a sample cup and the sample cup was inserted into a DNP polarizer. The composition was polarised under DNP conditions at 1.2 K in a 3.35 T magnetic field under irradiation with microwave (93.900 GHz). The calculated solid-state polarization was 17% and the polarization build-up constant was 900 s.
The sample was dissolved in 6 ml 40 mM phosphate buffer pH 7.3+100 mg/l EDTA. A time series of 1D 13C-NMR spectra were recorded with a total delay between the pulses of 3 s. The liquid state polarization was 14% after 12 s transfer time. The pH was 7.3 in the dissolved sample. […]
43 mg of the composition prepared above were transferred from the Eppendorf tube to a sample cup and the sample cup was inserted into a DNP polarizer. […] The calculated solid-state polarization was 18% and the polarization build-up constant was 1700 s.
The sample was dissolved in 6 ml 40 mM phosphate buffer pH 7.3+100 mg/l EDTA. A time series of 1D 13C-NMR spectra were recorded with a total delay between the pulses of 3 s. […]

precipitation of the radical in water dissolution ([1]; dissolved in 6 ml 40 mM phosphate buffer pH 7.3 + 100 mg/l EDTA): does not precipitate
Substance: tris{8-carboxyl-2,2,6,6-tetramethyl-benzo(1,2-d:4,5-dS)bis(1,3)dithiole-4-yl}methyl sodium salt [Radical 1, reference compound]
removal of the radical by mechanical filtration ([1]; after water dissolution): cannot be removed by mechanical filtration
polarization build-up constant [2]: 900 s

Reference: patent US9381257B2, “Triarylmethyl radicals” (BRACCO IMAGING S.P.A., priority 2012, dated 2016)
